In experiment [1] the target is T1, Angiotensin-converting enzyme (Oryctolagus cuniculus, UniProt P12822).
T1 sequence (P12822 whole entry): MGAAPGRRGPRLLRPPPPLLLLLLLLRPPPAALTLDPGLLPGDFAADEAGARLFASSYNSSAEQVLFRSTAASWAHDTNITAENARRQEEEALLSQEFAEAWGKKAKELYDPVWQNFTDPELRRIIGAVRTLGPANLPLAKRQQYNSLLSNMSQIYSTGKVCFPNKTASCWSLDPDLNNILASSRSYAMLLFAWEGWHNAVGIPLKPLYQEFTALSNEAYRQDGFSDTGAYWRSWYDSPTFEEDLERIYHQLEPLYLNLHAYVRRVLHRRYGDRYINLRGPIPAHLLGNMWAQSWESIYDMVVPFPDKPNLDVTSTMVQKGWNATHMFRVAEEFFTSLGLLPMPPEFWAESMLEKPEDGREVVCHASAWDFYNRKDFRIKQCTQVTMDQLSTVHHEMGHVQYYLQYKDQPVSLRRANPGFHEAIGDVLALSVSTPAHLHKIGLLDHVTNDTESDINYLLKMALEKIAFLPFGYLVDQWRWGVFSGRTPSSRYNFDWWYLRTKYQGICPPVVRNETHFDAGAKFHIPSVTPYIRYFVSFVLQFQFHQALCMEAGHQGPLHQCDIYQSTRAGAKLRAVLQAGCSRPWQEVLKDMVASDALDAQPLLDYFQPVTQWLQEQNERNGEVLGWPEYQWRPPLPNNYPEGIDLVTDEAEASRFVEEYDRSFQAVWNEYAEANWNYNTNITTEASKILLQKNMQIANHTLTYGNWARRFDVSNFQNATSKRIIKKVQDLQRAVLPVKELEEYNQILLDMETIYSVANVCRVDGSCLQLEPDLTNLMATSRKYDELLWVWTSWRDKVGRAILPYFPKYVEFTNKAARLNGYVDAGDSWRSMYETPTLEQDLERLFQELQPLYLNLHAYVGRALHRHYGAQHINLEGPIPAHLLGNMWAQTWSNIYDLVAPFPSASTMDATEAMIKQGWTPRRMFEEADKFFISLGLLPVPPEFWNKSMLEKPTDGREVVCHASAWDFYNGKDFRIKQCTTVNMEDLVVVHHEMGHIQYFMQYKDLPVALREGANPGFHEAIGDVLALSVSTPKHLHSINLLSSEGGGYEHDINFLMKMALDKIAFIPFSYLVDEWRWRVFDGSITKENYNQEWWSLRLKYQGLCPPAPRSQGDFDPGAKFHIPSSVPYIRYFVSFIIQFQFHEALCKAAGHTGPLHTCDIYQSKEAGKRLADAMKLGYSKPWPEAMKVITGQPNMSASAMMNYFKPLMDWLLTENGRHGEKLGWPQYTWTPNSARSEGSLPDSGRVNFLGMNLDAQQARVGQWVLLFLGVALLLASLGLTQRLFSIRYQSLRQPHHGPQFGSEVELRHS
Nature of the experiment: Inhibitory concentration against Angiotensin I converting enzyme obtained from rabbit lung acetone powder extract. Particulars: read-out: I50 (converted).

Experiment [2] addresses T2, Angiotensin-converting enzyme (Oryctolagus cuniculus) (UniProt P12822).
T2 sequence (whole entry): T1 sequence (P12822 whole entry)
Nature of the experiment: Inhibition of Angiotensin I converting enzyme from rabbit lung acetone powder extract; Inactive.

Experiment [3] addresses T2, Angiotensin-converting enzyme (Oryctolagus cuniculus). Nature of the experiment: Tested for percent inhibitory concentration that cause inhibition of Angiotensin I converting enzyme obtained from rabbit lung acetone powder extract at 200 ug/mL.
The subject of experiment [4] is P388. Nature of the experiment: Tested for concentration that causes 50% inhibition of P388 leukemic cell growth, was determined in vitro. In kind it is functional, cell-based. Particulars: Mus musculus.
The target in experiment [5] is T3, Aminopeptidase B (Rattus norvegicus, UniProt O09175).
T3 sequence (O09175 whole entry): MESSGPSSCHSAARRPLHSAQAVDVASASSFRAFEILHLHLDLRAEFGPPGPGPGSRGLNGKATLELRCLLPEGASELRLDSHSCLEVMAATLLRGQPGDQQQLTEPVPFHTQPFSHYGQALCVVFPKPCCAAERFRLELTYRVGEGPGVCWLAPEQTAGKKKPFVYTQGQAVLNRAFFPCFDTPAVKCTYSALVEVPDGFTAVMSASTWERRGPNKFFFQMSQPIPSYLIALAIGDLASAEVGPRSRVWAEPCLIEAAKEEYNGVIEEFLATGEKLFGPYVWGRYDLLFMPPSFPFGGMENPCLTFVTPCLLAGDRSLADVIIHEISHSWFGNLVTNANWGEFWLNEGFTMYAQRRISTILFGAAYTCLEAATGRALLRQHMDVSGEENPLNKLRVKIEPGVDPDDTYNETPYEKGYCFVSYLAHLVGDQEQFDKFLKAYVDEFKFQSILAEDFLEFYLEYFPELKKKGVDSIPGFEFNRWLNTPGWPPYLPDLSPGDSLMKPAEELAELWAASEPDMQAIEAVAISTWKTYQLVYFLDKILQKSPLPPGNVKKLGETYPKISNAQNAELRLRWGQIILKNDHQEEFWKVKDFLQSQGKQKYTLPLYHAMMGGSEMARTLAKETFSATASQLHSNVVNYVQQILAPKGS
The experiment in a line: Tested for concentration that causes 50% inhibition of rat liver aminopeptidase B, was determined; Inactive.

Experiment [6] addresses T4, Aminopeptidase B (Rattus norvegicus) (UniProt O09175).
T4 sequence (whole entry): T3 sequence (O09175 whole entry)
The experiment in a line: Tested for percent inhibitory concentration that cause inhibition of rat liver aminopeptidase B at 220 ug/mL.

Experiment [7] addresses T2, Angiotensin-converting enzyme (Oryctolagus cuniculus). The experiment in a line: Tested for inhibitory concentration that causes inhibition of Angiotensin I converting enzyme obtained from rabbit lung acetone powder extract. The note with it: concentration not given here.
The target in experiment [8] is T4, Aminopeptidase B (Rattus norvegicus). The experiment in a line: Percent inhibition of rat liver aminopeptidase B by 230 ug/mL was determined.
Experiment [9] deals with T1, Angiotensin-converting enzyme. The experiment in a line: Tested for inhibitory concentration that causes inhibition of Angiotensin I converting enzyme obtained from rabbit lung acetone powder extract). The note with it: read-out: I50 (converted).
Experiment [10] shares this target. Nature of the experiment: Tested for inhibitory constant against Angiotensin I converting enzyme.
The test system of experiment [11] is P388. The experiment in a line: Tested in vitro for concentration that causes 50% inhibition of P388 leukemic cell growth. Particulars: Mus musculus. In kind it is functional, cell-based.
Experiment [12] deals with T2, Angiotensin-converting enzyme (Oryctolagus cuniculus). Nature of the experiment: Tested for percent inhibitory concentration that cause inhibition of Angiotensin I converting enzyme obtained from rabbit lung acetone powder extract at 100 ug/mL.
The target in experiment [13] is T3, Aminopeptidase B. Nature of the experiment: Tested for concentration that causes 50% inhibition of rat liver aminopeptidase B, was determined. The note with it: read-out: I50 (converted).

pKi: −log10 of the molar value. Active and inactive are the calls of the source. No cut-off for these calls is given here.

Take `COc1ccc2cc1Oc1ccc(cc1)C[C@@H](C(=O)O)NC(=O)[C@H](CC(N)=O)NC(=O)[C@@H](NC(=O)OCc1ccccc1)C2`: the IC50 in [1] was 182 µM.
As to `COC(=O)[C@H]1Cc2ccc(O)c(c2)Oc2ccc(cc2)C[C@H](NC(C)=O)C(=O)N[C@@H](Cc2ccc(O)cc2)C(=O)N1`, the IC50 in experiment [1] is 0.89 µM.
Same read-out and setting: with `COC(=O)[C@H]1Cc2ccc(O)c(c2)Oc2ccc(cc2)C[C@H](N)C(=O)N[C@@H](Cc2ccc(O)cc2)C(=O)N1` the figure was 1.15 µM.
The term inhibition denotes the share of the control response that was lost under treatment. Turning to `O=C1CCc2cccc(c2)Oc2ccc(cc2)CCNC(=O)CN1`, the inhibition result in experiment [2] was “inactive”.
In the case of `COc1ccc2cc1Oc1ccc(cc1)C[C@H](NC(C)=O)C(=O)N[C@@H](Cc1ccc(O)cc1)C(=O)N[C@H](C(=O)O)C2`, the IC50 in experiment [1] was 5.34 µM.
On to `CC(=O)N[C@@H](Cc1ccc(Oc2cc(C[C@H](NC(=O)[C@H](Cc3ccc(O)cc3)NC(=O)OC(C)(C)C)C(=O)O)ccc2OCc2ccccc2)cc1)C(=O)O`, for which the inhibition result in experiment [2] was “inactive”.
For the compound `N[C@@H](Cc1ccc(Oc2cc(C[C@H](N)C(=O)O)ccc2O)cc1)C(=O)O`, in experiment [3], the inhibition stood at 13%. This compound also showed an IC50 in the experiment on P388 [4] of more than 10 µg/mL. Moreover, the I50 entry at Aminopeptidase B [5] is listed as “Not Active”.
On to `COC(=O)[C@H](Cc1ccc(O)c(Oc2ccc(C[C@H](NC(=O)[C@H](CC(N)=O)NC(=O)OC(C)(C)C)C(=O)OC)cc2)c1)NC(=O)OCc1ccccc1`, for which the inhibition entry in experiment [2] is “inactive”.
With `COC(=O)[C@H](Cc1ccc(OCc2ccccc2)c(Oc2ccc(C[C@H](NC(=O)[C@H](CC(N)=O)NC(=O)OC(C)(C)C)C(=O)OC)cc2)c1)NC(=O)OCc1ccccc1`, the inhibition entry in [2] is “inactive”.
Regarding `COC(=O)[C@@H]1Cc2ccc(cc2)Oc2cc(ccc2OCc2ccccc2)C[C@H](NC(=O)OCc2ccccc2)C(=O)N[C@@H](CC(N)=O)C(=O)N1`, the inhibition in experiment [6] was determined as 14%.
For `O=C1CCc2ccc(cc2)Oc2cccc(c2)CCNC(=O)[C@H](Cc2ccc(O)cc2)N1`, the inhibition in experiment [7] was found to be 10%.
As to `COc1ccc2cc1Oc1ccc(cc1)C[C@@H](C(=O)O)NC(=O)[C@H](CC(N)=O)NC(=O)[C@@H](N)C2`, the IC50 was more than 10 µg/mL in the experiment with P388 [4] and 149 µM in experiment [1].
For `COC(=O)CCc1cccc(Oc2ccc(CCNC(=O)[C@H](CC(N)=O)NC(=O)OC(C)(C)C)cc2)c1`, the inhibition result in [2] is “inactive”.
With `O=C1CCc2ccc(cc2)Oc2cc(ccc2O)CCNC(=O)[C@H](Cc2ccc(O)cc2)N1`, the IC50 in experiment [1] is 11.2 µM.
Still for that read-out and setting: as for `COC(=O)[C@@H]1Cc2ccc(cc2)Oc2cc(ccc2OC)C[C@H](NC(=O)OCc2ccccc2)C(=O)N[C@@H](CC(N)=O)C(=O)N1`, the figure is 210 µM; as for `COc1ccc2cc1Oc1ccc(cc1)CCNC(=O)[C@H](CC(N)=O)NC(=O)CC2`, 535 µM.
`COC(=O)CCc1ccc(O)c(Oc2ccc(CCNC(=O)[C@H](CC(N)=O)NC(=O)OC(C)(C)C)cc2)c1`: in experiment [2], the inhibition entry is “inactive”.
Take `NC(=O)C[C@@H]1NC(=O)CCc2ccc(O)c(c2)Oc2ccc(cc2)CCNC1=O`: in experiment [1], the IC50 is 528 µM.
As to `COC(=O)CCc1ccc(OC)c(Oc2ccc(CCNC(=O)[C@H](CC(N)=O)NC(=O)OC(C)(C)C)cc2)c1`, the inhibition result in [2] is “inactive”.
The same measure, in the same setting: as for `COC(=O)CCc1cccc(Oc2ccc(CCNC(=O)CNC(=O)OC(C)(C)C)cc2)c1`, the entry is “inactive”.
Consider `COC(=O)[C@@H]1Cc2ccc(cc2)Oc2cc(ccc2O)C[C@H](NC(=O)OCc2ccccc2)C(=O)N[C@@H](CC(N)=O)C(=O)N1`, for which the IC50 in experiment [1] was 198 µM.
A word on the pKi: it is −log10 of the Ki, conventionally taken in molar units. A low value points to a large Ki. As to `CC(=O)N[C@@H]1Cc2ccc(cc2)Oc2cc(ccc2O)C[C@H](C(=O)O)NC(=O)[C@H](Cc2ccc(O)cc2)NC1=O`, in [8], the inhibition was 13%. The IC50 is 0.183 µM in experiment [9] and more than 10 µg/mL in the experiment with P388 [11]. This compound also had a pKi in experiment [10] of 6.46.
As for `CC(C)(C)OC(=O)N[C@@H](Cc1ccc(Oc2cc(C[C@H](NC(=O)OCc3ccccc3)C(=O)O)ccc2OCc2ccccc2)cc1)C(=O)N[C@H](Cc1ccc(O)cc1)C(=O)O`, the inhibition result in experiment [2] was “inactive”.
Take `COC(=O)[C@@H]1Cc2ccc(cc2)Oc2cc(ccc2O)C[C@H](N)C(=O)N[C@@H](CC(N)=O)C(=O)N1`: the IC50 in [1] is 42.5 µM.
On to `NC(=O)C[C@@H]1NC(=O)[C@@H](N)Cc2ccc(O)c(c2)Oc2ccc(cc2)C[C@@H](C(=O)O)NC1=O`, for which the inhibition in experiment [12] was 11%. Moreover, the IC50 on Aminopeptidase B [13] was 43.8 µM; in the experiment with P388 [4], more than 10 µg/mL.
On to `O=C1CCc2ccc(O)c(c2)Oc2ccc(cc2)CCNC(=O)CN1`, for which the inhibition entry in experiment [2] is “inactive”.
Same read-out and setting: with `NC(=O)C[C@@H]1NC(=O)CCc2cccc(c2)Oc2ccc(cc2)CCNC1=O` the entry was “inactive”.

Values taken from ChEMBL document CHEMBL1153666, “K-13 and of4949: Evaluation of key partial structures and pharmacophore delineation” (Bioorg Med Chem Lett, 1993).
